{
  "source": "patent US20070042005A1",
  "about": "“Pharmaceutical composition comprising fungal cell or fragment thereof” (priority 2003, published 2007)",
  "origin": "cited, not measured here",
  "key": {"[1]": {"settings": "rats"}, "[2]": {"settings": "in animals; owing to poor intestinal permeability"}},
  "data": [
    {"smiles": "C[C@H](N[C@@H](CCc1ccccc1)C(=O)O)C(=O)N1CCC[C@H]1C(=O)O", "note": "[Enalaprilat]", "values": [
      {"measurement": "oral absorption", "result": "poorly absorbed orally"}
    ]},
    {"smiles": "CCCCCCCCCCCCCCCC(=O)OC(CC(=O)[O-])C[N+](C)(C)C", "note": "(stereo not drawn) [Palmitoyl carnitine]", "values": [
      {"measurement": "effect on bioavailability of cefoxitin", "setting": "[1]", "result": "increase the bioavailability of cefoxitin"}
    ]},
    {"smiles": "CO[C@@]1(NC(=O)Cc2cccs2)C(=O)N2C(C(=O)O)=C(COC(N)=O)CS[C@@H]21", "note": "[cefoxitin]", "values": [
      {"measurement": "oral bioavailability", "setting": "[2]", "result": "< 5", "unit": "%"}
    ]}
  ]
}
